# Test results reported in publication PMC12124432, “Antimicrobial Peptide‐Peptoid Macrocycles from the Polymyxin B2 Chemical Space” (Angewandte Chemie (International Ed. in English), 2025).
# Bridge positions count the residues as written; N and C are the ends. Square brackets hold non-standard residues; d marks the D form. Peptide text beside a SMILES is read from it. * marks the point of attachment. N(3-phenylpropyl)Gly = O=C(O)CNCCCc1ccccc1; Gly(NCH2CH2Ph) = O=C(O)CNCCc1ccccc1; Gly(N-2-aminoethyl) = NCCNCC(=O)O; Gly(N(CH2)3NH2) = NCCCNCC(=O)O; Gly(N-cPent) = O=C(O)CNC1CCCC1; Heptanoyl = CCCCCCC(=O)*; Nphe = O=C(O)CNCc1ccccc1; Octanoyl = CCCCCCCC(=O)*; Dab = NCC[C@H](N)C(=O)O; NPrGly = CCCNCC(=O)O
# Columns and labels:
# P. aeruginosa PAO1 [1] = test: Transmission electron microscopy (TEM); assay type: cell-based, Pseudomonas aeruginosa; conditions: 10 × MIC, 12.5% MH, 2 h incubation at 37 °C, OD600 = 0.5
# Method: Specific Fluorescence Enhacement
# Concentration of Dansyl-PMB (μM)
# Figure S9. Extracted data from the specific fluorescence enhancement data (Figure S8) from DsPMB at 485 nm. The plateau is reached at approximately 2.5 µM. Each data point represent mean ± SD, n =3.
# 15. Transmission Electron Microscopy (TEM)
# Transmission electron microscopy was evaluated at a high cell density (10^8 CFU) and a concentration (10x MIC) that killed the bacteria, but not all of them. An overnight culture of P. aeruginosa PAO1 was regrown until exponential phase (1 mL, OD600 = 0.5) in 12.5% MH medium pH 7.4, treated with the compounds, in diluted MH medium (at pH 7.4) and incubated for 2 hours at 37 °C. Just before the samples were further prepared for the microscopy, surviving bacteria were quantified by plating 10-fold dilutions of samples in sterilized normal saline (NaCl 0.9 %) on LB agar plates. LB agar plates were incubated at 37 °C for 10 hours and the number of individual colonies was counted at each time-point, to monitor partial bacteria killing. The assay was performed in triplicates. Each bacteria sample was centrifuged at 12’000 rpm for 3 min and the supernatant was discarded. The samples were fixed overnight with 2.5% glutaraldehyde (Agar Scientific, Stansted, Essex, UK) in 0.15 M HEPES (Fluka, Buchs, Switzerland) with an osmolarity of 630 mOsm and adjusted to a pH of 7.44. […]
# P. aeruginosa PAO1 [2] = assay type: cell-based, Pseudomonas aeruginosa; conditions: for Effect of salt on antibacterial activity against P. aeruginosa: NaCl 0-300 mM in 12.5% Mueller-Hinton broth at pH 8.5; for MIC on P. aeruginosa, 0 mM NaCl / MIC on P. aeruginosa, 100 mM NaCl / MIC on P. aeruginosa, 200 mM NaCl / MIC on P. aeruginosa, 300 mM NaCl: PAO1, pH 8.5
# Method: (§1) Minimal Inhibitory Concentration (MIC)
# (§2) Antimicrobial activity was assayed for all the peptide-peptoids against P. aeruginosa PAO1, K. pneumoniae NCTC418, E. coli W3110, A. baumannii ATCC 19606, methicillin-resistant S. aureus COL (MRSA) and for selected peptides on P. aeruginosa PA14, as well as the clinical isolates ZEM-1A and ZEM9A, K. pneumoniae OXA-48, Enterobacter cloacae, Stenotrophomonas maltophilia and Staphylococus epidermidis. To determine the Minimal Inhibitory Concentration (MIC), Broth Microdilution method was used. A colony of bacteria was picked and grown in LB medium overnight at 37 °C. The next day, the culture was then regrown in LB medium to log phase (OD600 = 0.6 to 0.8), which lasted approximately 4 hours, and diluted to an OD600 of 0.022 in the desired medium (full MH or 12.5% MH).
# (§3) The compounds were prepared as stock solutions of 2 mg/mL in sterilized MilliQ deionized water and then diluted in the desired media (full MH or 12.5% MH) to reach the first concentration tested (32 μg/mL). The compounds were added to the first well of a 96-well sterile, round bottom microtiter plates in polystyrene (TPP®, untreated) and diluted serially by ½ in the desired media (full MH or 12.5% MH), to a final volume of 150 µL/well. To each well was finally added 4 µL of the diluted bacterial suspension (see above), corresponding to approximately 5×10^5 CFU. For each test, two columns of the plate were kept for sterility control (medium only), growth control (medium with bacterial inoculum, no compound). The positive control, Polymyxin B (starting with a concentration of 16 µg/mL) in MH medium with bacterial inoculums, was introduced in the two first lines of the plate. The plates were incubated at 37 °C for ca. 18 hours under static conditions. 15 µL of 3-(4,5-dimethylthiazol-2-yl)-2,5-diphenyltetrazolium bromide (MTT)[7] (1 mg/mL in sterilized MilliQ deionized water) were added to each well and the plates were incubated for 20-30 minutes at room temperature. The […]
# (§4) minimal inhibitory concentration (MIC) was defined as the lowest concentration of the compound that inhibits the visible growth of the tested bacteria (yellow) with the unaided eye.
# (§5) Minimal Hemolytic Concentration (MHC) […]
# (§6) 11. Minimal inhibitory in presence of salt
# The same procedure as for the antibacterial activity measurements by minimal inhibitory concentration assay (MIC) was applied. The media, 12.5% Mueller-Hinton broth was this time supplemented with different salt concentrations (0, 100, 200 300 mM NaCl). The MIC activities were then determined against Pseudomonas aeruginosa PAO1 and Escherichia coli […]
# Table S6. Minimal inhibitory concentration (MIC) on P. aeruginosa PAO1 as function of salt […]
# (§7) All data, in μg/mL, measured against P. aeruginosa PAO1, with or without addition of salt (NaCl). The values were measured in dilute medium (12.5% MH) and at slightly basic pH (pH = 8.5), after incubation for 16-20 h at 37 °C. Values represent two different duplicate MIC determinations.
# E. coli W3110 = assay type: cell-based, Escherichia coli; conditions: for Effect of salt on antibacterial activity against E. coli: NaCl 0-300 mM in 12.5% Mueller-Hinton broth at pH 8.5; for MIC on E. coli, 0 mM NaCl / MIC on E. coli, 100 mM NaCl / MIC on E. coli, 200 mM NaCl / MIC on E. coli, 300 mM NaCl: W3110, pH 8.5
# Method: as §1, §2, §3, §4, §5, §6
# The same procedure as for the antibacterial activity measurements by minimal inhibitory concentration assay (MIC) was applied. The media, 12.5% Mueller-Hinton broth was this time supplemented with different salt concentrations (0, 100, 200 300 mM NaCl). […]
# as §7
smiles,measurement,setting,value
CCCCCCC(=O)N[C@H](C(=O)N(CCN)CC(=O)N(CCCc1ccccc1)CC(=O)N[C@H]1CCNC(=O)[C@H](CCCCN)NC(=O)CN(CCCN)C(=O)[C@H](CCCCN)NC(=O)CNC(=O)[C@H](CCCCN)NC1=O)C(C)C [EB13] (Heptanoyl-V[Gly(N-2-aminoethyl)][N(3-phenylpropyl)Gly][Dab]KGK[Gly(N(CH2)3NH2)]K; lactam 4-C),TEM pattern of treated P. aeruginosa cells,P. aeruginosa PAO1 [1],aggregation of intracellular contents
same,Effect of salt on antibacterial activity against P. aeruginosa,P. aeruginosa PAO1 [2],inhibited by high salt concentrations
same,"MIC on P. aeruginosa, 0 mM NaCl",P. aeruginosa PAO1 [2],4 mg/L
same,"MIC on P. aeruginosa, 100 mM NaCl",P. aeruginosa PAO1 [2],> 64 mg/L
same,"MIC on P. aeruginosa, 200 mM NaCl",P. aeruginosa PAO1 [2],> 64 mg/L
same,"MIC on P. aeruginosa, 300 mM NaCl",P. aeruginosa PAO1 [2],> 64 mg/L
same,Effect of salt on antibacterial activity against E. coli,E. coli W3110,inhibited by high salt concentrations
same,"MIC on E. coli, 0 mM NaCl",E. coli W3110,0.5 mg/L
same,"MIC on E. coli, 100 mM NaCl",E. coli W3110,16 mg/L
same,"MIC on E. coli, 200 mM NaCl",E. coli W3110,> 64 mg/L
same,"MIC on E. coli, 300 mM NaCl",E. coli W3110,> 64 mg/L
CCCCCCCC(=O)N(CCc1ccccc1)CC(=O)N[C@@H](CCCCN)C(=O)N[C@@H](CC(N)=O)C(=O)N[C@H]1CCNC(=O)[C@H](CCCCN)NC(=O)CN(CCCN)C(=O)[C@H](CCCCN)NC(=O)CN(CCC)C(=O)[C@H](CCCCN)NC1=O [EB12] (Octanoyl-[Gly(NCH2CH2Ph)]KN[Dab]K[NPrGly]K[Gly(N(CH2)3NH2)]K; lactam 4-C),TEM pattern of treated P. aeruginosa cells,P. aeruginosa PAO1 [1],aggregation of intracellular contents
same,Effect of salt on antibacterial activity against P. aeruginosa,P. aeruginosa PAO1 [2],inhibited by high salt concentrations
same,"MIC on P. aeruginosa, 0 mM NaCl",P. aeruginosa PAO1 [2],2 to 4 mg/L
same,"MIC on P. aeruginosa, 100 mM NaCl",P. aeruginosa PAO1 [2],32 mg/L
same,"MIC on P. aeruginosa, 200 mM NaCl",P. aeruginosa PAO1 [2],> 64 mg/L
same,"MIC on P. aeruginosa, 300 mM NaCl",P. aeruginosa PAO1 [2],> 64 mg/L
same,Effect of salt on antibacterial activity against E. coli,E. coli W3110,inhibited by high salt concentrations
same,"MIC on E. coli, 0 mM NaCl",E. coli W3110,1 mg/L
same,"MIC on E. coli, 100 mM NaCl",E. coli W3110,2 mg/L
same,"MIC on E. coli, 200 mM NaCl",E. coli W3110,4 mg/L
same,"MIC on E. coli, 300 mM NaCl",E. coli W3110,16 mg/L
CCCCCCCC(=O)N[C@@H](CCCCN)C(=O)N(CC(=O)N[C@@H](CCCCN)C(=O)N[C@H]1CCNC(=O)[C@H](CCCCN)NC(=O)CN(C2CCCC2)C(=O)CN(CCN)C(=O)[C@H](CCCCN)NC(=O)[C@H](CC(N)=O)NC1=O)Cc1ccccc1 [EB21] (Octanoyl-K[Nphe]K[Dab]NK[Gly(N-2-aminoethyl)][Gly(N-cPent)]K; lactam 4-C),Effect of salt on antibacterial activity against P. aeruginosa,P. aeruginosa PAO1 [2],inhibited by high salt concentrations
same,"MIC on P. aeruginosa, 0 mM NaCl",P. aeruginosa PAO1 [2],4 mg/L
same,"MIC on P. aeruginosa, 100 mM NaCl",P. aeruginosa PAO1 [2],> 64 mg/L
same,"MIC on P. aeruginosa, 200 mM NaCl",P. aeruginosa PAO1 [2],> 64 mg/L
same,"MIC on P. aeruginosa, 300 mM NaCl",P. aeruginosa PAO1 [2],> 64 mg/L
same,Effect of salt on antibacterial activity against E. coli,E. coli W3110,inhibited by high salt concentrations
same,"MIC on E. coli, 0 mM NaCl",E. coli W3110,1 mg/L
same,"MIC on E. coli, 100 mM NaCl",E. coli W3110,16 mg/L
same,"MIC on E. coli, 200 mM NaCl",E. coli W3110,> 64 mg/L
same,"MIC on E. coli, 300 mM NaCl",E. coli W3110,> 64 mg/L
